Results as given in ChEMBL document CHEMBL2401638, “Design and synthesis of biquinolone-isoniazid hybrids as a new class of antitubercular and antimicrobial agents” (Eur J Med Chem, 2013).

Legend:
[1] = tested on: Trichophyton rubrum; test: Antifungal activity against Trichophyton rubrum MTCC 296 assessed as growth inhibition by broth microdilution method; format: functional
[2] = tested on: Candida albicans; test: Antifungal activity against Candida albicans MTCC 227 assessed as growth inhibition by broth microdilution method; format: functional
[3] = tested on: Mycobacterium tuberculosis; test: Antituberculosis activity against Mycobacterium tuberculosis H37Rv assessed as growth inhibition at 250 ug/ml after 12 to 28 days by Lowenstein-Jensen method relative to control; format: functional; settings: read-out: GI
[4] = tested on: Pseudomonas aeruginosa; test: Antibacterial activity against Pseudomonas aeruginosa MTCC 1688 assessed as growth inhibition by broth microdilution method; format: functional
[5] = tested on: Salmonella typhi; test: Antibacterial activity against Salmonella typhi MTCC 98 assessed as growth inhibition by broth microdilution method; format: functional, Salmonella enterica subsp. enterica serovar Typhi; settings: Salmonella enterica
[6] = tested on: Clostridium tetani; test: Antibacterial activity against Clostridium tetani MTCC 449 assessed as growth inhibition by broth microdilution method; format: functional
[7] = tested on: Escherichia coli; test: Antibacterial activity against Escherichia coli MTCC 443 assessed as growth inhibition by broth microdilution method; format: functional
[8] = tested on: Staphylococcus aureus; test: Antibacterial activity against Staphylococcus aureus MTCC 96 assessed as growth inhibition by broth microdilution method; format: functional
[9] = tested on: Bacillus subtilis; test: Antibacterial activity against Bacillus subtilis MTCC 441 assessed as growth inhibition by broth microdilution method; format: functional

| Molecule | MIC [1] [µg/mL] | MIC [2] [µg/mL] | inhibition of growth at 250 µg/mL [3] [%] | MIC [4] [µg/mL] | MIC [5] [µg/mL] | MIC [6] [µg/mL] | MIC [7] [µg/mL] | MIC [8] [µg/mL] | MIC [9] [µg/mL] |
| --- | --- | --- | --- | --- | --- | --- | --- | --- | --- |
| COC1=CC(=O)C[C@@H](C)[C@]12Oc1c(Cl)c(OC)cc(OC)c1C2=O [GRISEOFULVIN] | 100 | 500 | – | – | – | – | – | – | – |
| C=CCn1c(=O)c(C2C(C(=O)OCC)=C(N)N(NC(=O)c3ccncc3)C3=C2C(=O)CCC3)cc2cc(C)ccc21 (centres undefined) | 100 | 500 | 23 | 250 | 500 | 62.5 | 500 | 100 | 250 |
| O=C(N[C@H](CO)[C@H](O)c1ccc([N+](=O)[O-])cc1)C(Cl)Cl [CHLORAMPHENICOL] | – | – | – | 50 | 50 | 50 | 50 | 50 | 50 |
| C=CCn1c(=O)c(C2C(C(=O)OC)=C(N)N(NC(=O)c3ccncc3)C3=C2C(=O)CCC3)cc2cc(Cl)ccc21 (centres undefined) | 1000 | 1000 | 89 | 500 | 200 | 200 | 250 | 250 | 500 |
| C=CCn1c(=O)c(C2C(C(=O)OC(C)C)=C(N)N(NC(=O)c3ccncc3)C3=C2C(=O)CCC3)cc2ccccc21 (centres undefined) | 500 | 1000 | 65 | 500 | 125 | 500 | 100 | 500 | 250 |
| C=CCn1c(=O)c(C2C(C(=O)OCC)=C(N)N(NC(=O)c3ccncc3)C3=C2C(=O)CCC3)cc2cc(Cl)ccc21 (centres undefined) | 1000 | 250 | 87 | 500 | 250 | 125 | 100 | 100 | 250 |
| C=CCn1c(=O)c(C2C(C(=O)OC(C)C)=C(N)N(NC(=O)c3ccncc3)C3=C2C(=O)CCC3)cc2cc(OC)ccc21 (centres undefined) | 1000 | 250 | 27 | 250 | 250 | 250 | 200 | 250 | 250 |
| C=CCn1c(=O)c(C2C(C(=O)OCC)=C(N)N(NC(=O)c3ccncc3)C3=C2C(=O)CCC3)cc2ccccc21 (centres undefined) | > 1000 | 500 | 51 | 500 | 250 | 250 | 500 | 250 | 500 |
| NYSTATIN | 100 | 100 | – | – | – | – | – | – | – |
| C=CCn1c(=O)c(C2C(C(=O)OC)=C(N)N(NC(=O)c3ccncc3)C3=C2C(=O)CC(C)(C)C3)cc2cc(Cl)ccc21 (centres undefined) | 1000 | 500 | 87 | 500 | 200 | 100 | 250 | 200 | 500 |
| C=CCn1c(=O)c(C2C(C(=O)OC)=C(N)N(NC(=O)c3ccncc3)C3=C2C(=O)CCC3)cc2cc(C)ccc21 (centres undefined) | > 1000 | 500 | 58 | 100 | 250 | 500 | 500 | 500 | 62.5 |
| C=CCn1c(=O)c(C2C(C(=O)OC)=C(N)N(NC(=O)c3ccncc3)C3=C2C(=O)CCC3)cc2ccccc21 (centres undefined) | 500 | 500 | 74 | 50 | 250 | 125 | 500 | 125 | 100 |
| C=CCn1c(=O)c(C2C(C(=O)OC(C)C)=C(N)N(NC(=O)c3ccncc3)C3=C2C(=O)CCC3)cc2cc(C)ccc21 (centres undefined) | 1000 | 1000 | 22 | 500 | 200 | 500 | 250 | 500 | 500 |
| C=CCn1c(=O)c(C2C(C(=O)OC(C)C)=C(N)N(NC(=O)c3ccncc3)C3=C2C(=O)CC(C)(C)C3)cc2cc(OC)ccc21 (centres undefined) | 500 | 1000 | 74 | 250 | 250 | 500 | 200 | 500 | 250 |
